{
  "source": "patent US9493524B2",
  "about": "“Methods for treatment of stroke or cerebrovascular accidents using an ETB receptor agonist” (MIDWESTERN UNIVERSITY, priority 2007, dated 2016)",
  "assay_type_in_all_cases": "in vivo, Sprague-Dawley rats",
  "key": {"[1]": {"system": "urethane anesthetized rat", "assay": "Cerebral blood perfusion by Laser Doppler Flowmetry", "description": "(§1) Male Sprague-Dawley rats weighing 323±4 grams (g) were anesthetized with urethane (ethyl carbamate, Sigma Aldrich, St. Louis, Mo.) dissolved in isotonic saline (0.9% NaCl, Hospira, Inc., Lake Forest, Ill.). The rats were administered a dose of 0.15 g per 100 g body weight via intraperitoneal (i.p.) injection.\nCerebral Perfusion: A burr hole was drilled into the rat skull about 2 millimeters (mm) to the left of midline. Cerebrovascular perfusion was measured via a fiber optic probe (PF407) applied to the surface of the rat brain. The probe was connected to a Periflux PF2b 4000 Laser Doppler Flowmetry unit (Perimed, Stockholm, Sweden).\n(§2) The rats were randomly selected for various studies. Following surgery the rats were allowed to stabilize for 30 minutes and a 15 minutes baseline recording of all parameters (blood pressure, heart rate, cerebral blood flow, and renal blood flow) was obtained prior to the administration of the pretreatment followed by IRL-1620 (Suc-[Glu 9, Ala 11,15], American Peptide Co, Inc., Sunnyville, Calif.) or ET-1 (Ala 1,3,11,15, RBI Sigma, Natick, Mass.). BQ-788, a selective endothelin B antagonist, is the sodium salt of N-cis-2,6-dimethylpiperidinocarbonyl-L-gamma-methylleucyl-D-1-methoxycarbonyl triptophanyl-DNIe (see Proc. Natl. Acad. Sci. USA, 91, pp. 4892-4896 (1994)) BMS is BMS 182, 874, which is a selective endothelin A antagonist having a structure\n(§3) Group 1: Animals (n=4) were pretreated with saline 15 minutes (min) prior to administration of IRL-1620 (5 μg/kg, i.v.).\n(§4) Group 2: Animals (n=4) were pretreated with BMS (5 mg/kg, i.v.) 15 min prior to administration of IRL-1620 (5 μg/kg, i.v.).\n(§5) Group 3: Animals (n=4) were pretreated with BMS (15 mg/kg, i.v.) 15 min prior to administration of IRL-1620 (5 μg/kg, i.v.).\n(§6) Group 4: Animals (n=4) were pretreated with BQ788 (1 μg/kg, i.v.) 15 min prior to administration of IRL-1620 (5 μg/kg, i.v.).\n(§7) Group 1: Animals (n=4) were pretreated with saline 15 min prior to administration of ET-1 (0.75 μg/kg, i.v.).\n(§8) Group 2: Animals (n=4) were pretreated with BMS (5 mg/kg, i.v.) 15 min prior to administration of ET-1 (0.75 μg/kg, i.v.).\n(§9) Group 3: Animals (n=4) were pretreated with BMS (15 mg/kg, i.v.) 15 min prior to administration of ET-1 (0.75 μg/kg, i.v.).\n(§10) Group 4: Animals (n=4) were pretreated with BQ788 (1 μg/kg, i.v.) 15 min prior to administration of ET-1 (0.75 μg/kg, i.v.).\n(§11) Blood pressure, heart rate, cerebral blood perfusion, and renal blood perfusion all were recorded for 2 hours following the final injection. Blood gases were analyzed prior to administration of any drugs, and at 60 and 120 min following administration of IRL-1620 or ET-1. At the end of each experiment, the animals were euthanized with an overdose of urethane i.v. In the figures, all data values are presented as mean±SEM. One-sample t-tests and one-way ANOVAs were used to test the differences within and between the groups. A P value of P<0.05 was considered significant."}, "[2]": {"system": "urethane anesthetized rat", "assay": "Renal blood perfusion by Laser Doppler Flowmetry", "details": "i.v.", "description": "as §1\nRenal Perfusion: The right kidney was dissected retroperitoneally. Renal perfusion was measured via a fiber optic probe (PF408) applied to the surface of the rat kidney. The probe was connected to a Periflux PF2b 4000 Laser Doppler Flowmetry unit (Perimed, Stockholm, Sweden).\nas §2, §3, §4, §5, §6, §7, §8, §9, §10, §11"}, "[3]": {"system": "urethane anesthetized rat", "assay": "Blood pressure / mean arterial pressure recording", "details": "i.v.; for decrease in mean arterial pressure: IRL-1620 5.0 μg/kg; for decrease in mean arterial pressure / increase in mean arterial pressure (subsequent hypertension): FIG. 11", "description": "as §1\n(§12) Blood Pressure and Heart Rate: The femoral vein and artery were cannulated. The arterial cannula was connected to a Gould P23 ID pressure transducer for recording the blood pressure on a Grass P7D polygraph through a 7PI preamplifier. The heart rate was recorded through a 7P4B Grass tachograph, triggered from blood pressure signals. Drugs were administered via the venous cannula.\nas §2, §3, §4, §5, §6, §7, §8, §9, §10, §11"}, "[4]": {"system": "urethane anesthetized rat", "assay": "Heart rate recording", "details": "IRL-1620 5 μg/kg; for heart rate: mean±SEM, in bpm (unit assumed)", "description": "as §1, §12, §2, §3, §4, §5\nGroup 4: Animals (n=4) were pretreated with BQ788 (1 μg/kg, i.v.) 15 min prior to administration of IRL-1620 (5 μg/kg, i.v.). […]\nas §11"}, "[5]": {"system": "urethane anesthetized rat", "assay": "Arterial blood gas analysis", "details": "IRL-1620 5 μg/kg, i.v., ET-1 0.75 μg/kg", "description": "as §1\nBlood Gas Analysis: Arterial blood gases were monitored to determine the effects on pH, pCO2, and pO2. Blood was drawn from the arteriole cannula and analyzed using a GEM Premier 3000 unit (Instrument Laboratory, Lexington, Mass.).\nas §11"}, "[6]": {"details": "time 0 min (prior to any drugs)"}},
  "data": [
    {"compound": "Cc1noc(NS(=O)(=O)c2cccc3c(N(C)C)cccc23)c1C", "note": "[BMS]", "values": [
      {"measurement": "effect of pretreatment on the effect of ET-1 on cerebral blood flow", "setting": "[1]; BMS 5 and 15 mg/kg, i.v., BQ788 1 μg/kg, ET-1 0.75 μg/kg, FIG. 7", "value": "no significant change"},
      {"measurement": "transient increase in cerebral blood flow", "setting": "[1]; high dose of BMS (15 mg/kg, i.v.) pretreatment, 1 minute after administration of IRL-1620 5 μg/kg, FIG. 6", "value": 37.99, "unit": "%"},
      {"measurement": "effect of pretreatment on the effect of ET-1 on renal blood flow", "setting": "[2]; BMS 5 and 15 mg/kg, BQ788 1 μg/kg, ET-1 0.75 μg/kg, FIG. 10", "value": "No pretreatment significantly altered"},
      {"measurement": "effect of pretreatment on the effect of IRL-1620 on renal blood flow", "setting": "[2]; BMS 5 and 15 mg/kg, BQ788 1 μg/kg, IRL-1620 5 μg/kg, FIG. 9", "value": "sustained decrease in renal blood flow up to 120 minutes"},
      {"measurement": "effect of pretreatment on the effect of ET-1 on mean arterial pressure", "setting": "[3]; BMS 5 and 15 mg/kg, BQ788 1 μg/kg, ET-1 0.75 μg/kg, FIG. 13", "value": "failed to alter"},
      {"measurement": "effect of pretreatment on the effect of IRL-1620 on mean arterial pressure", "setting": "[3]; BMS 5 and 15 mg/kg, BQ788 1 μg/kg, IRL-1620 5 μg/kg, FIG. 12", "value": "transient hypotension similar to that observed in animals pretreated with saline"},
      {"measurement": "heart rate", "setting": "[4]; 5 mg/kg BMS pretreatment, i.v., time 0 min", "value": "339 ± 6"},
      {"measurement": "heart rate", "setting": "[4]; 5 mg/kg BMS pretreatment, i.v., time 1 min", "value": "365 ± 4"},
      {"measurement": "heart rate", "setting": "[4]; 5 mg/kg BMS pretreatment, i.v., time 5 min", "value": "357 ± 13"},
      {"measurement": "heart rate", "setting": "[4]; 5 mg/kg BMS pretreatment, i.v., time 10 min", "value": "345 ± 14"},
      {"measurement": "heart rate", "setting": "[4]; 5 mg/kg BMS pretreatment, i.v., time 15 min", "value": "345 ± 14"},
      {"measurement": "heart rate", "setting": "[4]; 5 mg/kg BMS pretreatment, i.v., time 30 min", "value": "356 ± 12"},
      {"measurement": "heart rate", "setting": "[4]; 5 mg/kg BMS pretreatment, i.v., time 45 min", "value": "367 ± 14"},
      {"measurement": "heart rate", "setting": "[4]; 5 mg/kg BMS pretreatment, i.v., time 60 min", "value": "370 ± 14"},
      {"measurement": "heart rate", "setting": "[4]; 5 mg/kg BMS pretreatment, i.v., time 90 min", "value": "350 ± 9"},
      {"measurement": "heart rate", "setting": "[4]; 5 mg/kg BMS pretreatment, i.v., time 120 min", "value": "327 ± 12"},
      {"measurement": "heart rate", "setting": "[4]; 15 mg/kg BMS pretreatment, i.v., time 0 min", "value": "405 ± 11"},
      {"measurement": "heart rate", "setting": "[4]; 15 mg/kg BMS pretreatment, i.v., time 1 min", "value": "425 ± 11"},
      {"measurement": "heart rate", "setting": "[4]; 15 mg/kg BMS pretreatment, i.v., time 5 min", "value": "382 ± 13"},
      {"measurement": "heart rate", "setting": "[4]; 15 mg/kg BMS pretreatment, i.v., time 10 min", "value": "380 ± 11"},
      {"measurement": "heart rate", "setting": "[4]; 15 mg/kg BMS pretreatment, i.v., time 15 min", "value": "384 ± 11"},
      {"measurement": "heart rate", "setting": "[4]; 15 mg/kg BMS pretreatment, i.v., time 30 min", "value": "387 ± 17"},
      {"measurement": "heart rate", "setting": "[4]; 15 mg/kg BMS pretreatment, i.v., time 45 min", "value": "387 ± 21"},
      {"measurement": "heart rate", "setting": "[4]; 15 mg/kg BMS pretreatment, i.v., time 60 min", "value": "395 ± 19"},
      {"measurement": "heart rate", "setting": "[4]; 15 mg/kg BMS pretreatment, i.v., time 90 min", "value": "393 ± 21"},
      {"measurement": "heart rate", "setting": "[4]; 15 mg/kg BMS pretreatment, i.v., time 120 min", "value": "386 ± 18"},
      {"measurement": "effect of pretreatment on the effect of IRL-1620 on heart rate (Table 1)", "setting": "[4]; BMS 5 and 15 mg/kg, BQ788, i.v.", "value": "increase"}
    ]},
    {"compound": "ET-1: endothelin-1 (ET-1), a 21-amino acid peptide (ASASSLMDKEAVYFAHLDIIW)", "values": [
      {"measurement": "change in cerebral blood flow", "setting": "[1]; ET-1 0.75 μg/kg, i.v., FIG. 5", "value": "no significant change"},
      {"measurement": "persistence of the decrease in renal blood flow", "setting": "[2]; IRL-1620 5 μg/kg, ET-1 0.75 μg/kg, FIG. 8", "value": "approximately 15 minutes"},
      {"measurement": "decrease in renal blood flow", "setting": "[2]; at 1 minute, IRL-1620 5 μg/kg, ET-1 0.75 μg/kg, FIG. 8", "value": 40.27, "unit": "%"},
      {"measurement": "decrease in renal blood flow", "setting": "[2]; at 5 minutes, IRL-1620 5 μg/kg, ET-1 0.75 μg/kg, FIG. 8", "value": 50.10, "unit": "%"},
      {"measurement": "decrease in renal blood flow", "setting": "[2]; at 10 minutes, IRL-1620 5 μg/kg, ET-1 0.75 μg/kg, FIG. 8", "value": 26.33, "unit": "%"},
      {"measurement": "decrease in mean arterial pressure", "setting": "[3]; at 0.2 minute, ET-1 0.75 μg/kg", "value": 43.16, "unit": "%"},
      {"measurement": "decrease in mean arterial pressure", "setting": "[3]; at 0.5 minute, ET-1 0.75 μg/kg", "value": 37.80, "unit": "%"},
      {"measurement": "decrease in mean arterial pressure", "setting": "[3]; at 1 minute, ET-1 0.75 μg/kg", "value": 19.30, "unit": "%"},
      {"measurement": "increase in mean arterial pressure (subsequent hypertension)", "setting": "[3]; at 5 minutes, ET-1 0.75 μg/kg", "value": 12.72, "unit": "%"},
      {"measurement": "increase in mean arterial pressure (subsequent hypertension)", "setting": "[3]; at 10 minutes, ET-1 0.75 μg/kg", "value": 25.56, "unit": "%"},
      {"measurement": "increase in mean arterial pressure (subsequent hypertension)", "setting": "[3]; at 15 minutes, ET-1 0.75 μg/kg", "value": 28.49, "unit": "%"},
      {"measurement": "effect on heart rate (Table 1)", "setting": "[4]; i.v. after saline, ET-1 with or without pretreatment", "value": "No significant alteration"},
      {"measurement": "effect on arterial blood gases (text to Table 2)", "setting": "[5]", "value": "Neither IRL-1620 nor ET-1 significantly affected blood gases"},
      {"measurement": "arterial blood pCO2", "setting": "[5]; [6]", "value": "34 ± 3"},
      {"measurement": "arterial blood pH", "setting": "[5]; [6]", "value": "7.32 ± 0.01"},
      {"measurement": "arterial blood pO2", "setting": "[5]; [6]", "value": "118 ± 4"},
      {"measurement": "arterial blood pCO2", "setting": "[5]; time 60 min", "value": "40 ± 4"},
      {"measurement": "arterial blood pH", "setting": "[5]; time 60 min", "value": "7.29 ± 0.01"},
      {"measurement": "arterial blood pO2", "setting": "[5]; time 60 min", "value": "110 ± 2"},
      {"measurement": "arterial blood pCO2", "setting": "[5]; time 120 min", "value": "38 ± 4"},
      {"measurement": "arterial blood pH", "setting": "[5]; time 120 min", "value": "7.27 ± 0.01"},
      {"measurement": "arterial blood pO2", "setting": "[5]; time 120 min", "value": "116 ± 5"}
    ]}
  ]
}
